Measurements reported in US10954232B2, “Pyrazole derivative as ALK5 inhibitor and uses thereof” (HANMI PHARMACEUTICAL CO., LTD., priority 2016, dated 2021).

Target: T1, ALK5 kinase (Homo sapiens, UniProt P36897)
T1 construct: GST; purchased Thermo Fisher Scientific Solutions
T1 sequence (P36897 34-503): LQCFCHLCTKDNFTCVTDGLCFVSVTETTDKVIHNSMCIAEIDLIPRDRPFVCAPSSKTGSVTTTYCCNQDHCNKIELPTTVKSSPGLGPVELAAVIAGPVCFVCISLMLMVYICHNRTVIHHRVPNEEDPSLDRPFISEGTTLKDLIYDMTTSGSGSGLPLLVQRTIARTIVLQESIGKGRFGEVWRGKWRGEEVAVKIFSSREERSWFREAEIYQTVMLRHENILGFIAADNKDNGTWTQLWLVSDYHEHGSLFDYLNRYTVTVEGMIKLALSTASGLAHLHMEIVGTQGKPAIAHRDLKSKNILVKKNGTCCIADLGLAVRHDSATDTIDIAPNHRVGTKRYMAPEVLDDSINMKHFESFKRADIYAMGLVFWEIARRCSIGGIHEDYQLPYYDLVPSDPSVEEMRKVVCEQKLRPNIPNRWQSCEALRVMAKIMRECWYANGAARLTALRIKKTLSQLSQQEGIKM
Experiment: Activity inhibition test on ALK5 enzyme (LanthaScreen Eu binding kinase assay)
Conditions: kinase tracer 178, 60 minutes at room temperature
Outline: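 IC50 is the concentration giving 50% inhibition relative to control, taken from fluorescence after 60 min stirring at room temperature. Final mix held kinase 5 nM, Eu-GST binding antibody 2 nM and tracer 178 10 nM. Compounds were serially diluted from 1 μM to 0.0001 μM.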

Row | SMILES | IC50
1 | Cc1cccc(-n2nc(C(=O)Nc3ccc(N)cc3)cc2-c2ccc3ncnn3c2)n1 [Example 103, 5-([1,2,4]triazolo[1,5-α]pyridin-6-yl)-N-(4-aminophenyl)-1-(6-methylpyridin-2-yl)-1H-pyrazole-3-carboxyamide] | 9.1 nM
2 | Cc1cccc(-n2nc(C(=O)Nc3ccc(N(C)C)cc3)cc2-c2ccc3ncnn3c2)n1 [Example 104, 5-([1,2,4]triazolo[1,5-α]pyridin-6-yl)-N-(4-(dimethylamino)phenyl)-1-(6-methylpyridin-2-yl)-1-H-pyrazole-3-carboxyamide] | 7 nM
3 | Cc1cccc(-n2nc(C(=O)Nc3ccc(N4CCCC4)cc3)cc2-c2ccc3ncnn3c2)n1 [Example 105, 5-([1,2,4]triazolo[1,5-α]pyridin-6-yl)-N-(4-(pyrrolidin-1-yl)phenyl)-1-(6-methylpyridin-2-yl)-1H-pyrazole-3-carboxyamide] | 7 nM
4 | Cc1cccc(-n2nc(C(=O)Nc3ccc(N(C)CCN(C)C)cc3)cc2-c2ccc3ncnn3c2)n1 [Example 106, 5-([1,2,4]triazolo[1,5-α]pyridin-6-yl)-N-(4-((2-(dimethylamino)ethyl)(methyl)amino)phenyl)-1-(6-methylpyridin-2-yl)-1H-pyrazole-3-carboxyamide] | 14 nM
5 | Cc1cccc(-n2nc(C(=O)Nc3ccc(N4CCN(C)CC4)cc3)cc2-c2ccc3ncnn3c2)n1 [Example 107, 5-([1,2,4]triazolo[1,5-α]pyridin-6-yl)-N-(4-(4-methylpiperazin-1-yl)phenyl)-1-(6-methylpyridin-2-yl)-1H-pyrazole-3-carboxyamide] | 10 to 100 nM
6 | CC(=O)N1CCN(c2ccc(NC(=O)c3cc(-c4ccc5ncnn5c4)n(-c4cccc(C)n4)n3)cc2)CC1 [Example 108, 5-([1,2,4]triazolo[1,5-α]pyridin-6-yl)-N-(4-(4-acetylpiperazin-1-yl)phenyl)-1-(6-methylpyridin-2-yl)-1H-pyrazole-3-carboxyamide] | ~10 nM
7 | CC(=O)Nc1ccc(NC(=O)c2cc(-c3ccc4ncnn4c3)n(-c3cccc(C)n3)n2)cc1 [Example 110, 5-([1,2,4]triazolo[1,5-α]pyridin-6-yl)-N-(4-acetamidophenyl)-1-(6-methylpyridin-2-yl)-1H-pyrazole-3-carboxyamide] | 10 to 100 nM
8 | Cc1cccc(-n2nc(C(=O)Nc3ccc(CN(C)C)cc3)cc2-c2ccc3ncnn3c2)n1 [Example 111, 5-([1,2,4]triazolo[1,5-α]pyridin-6-yl)-N-(4-((dimethylamino)methyl)phenyl)-1-(6-methylpyridin-2-yl)-1H-pyrazole-3-carboxyamide] | > 100 nM
9 | CNC(=O)c1ccccc1NC(=O)c1cc(-c2ccc3ncnn3c2)n(-c2cccc(C)n2)n1 [Example 112, 5-([1,2,4]triazolo[1,5-α]pyridin-6-yl)-N-(2-(methylcarbamoyl)phenyl)-1-(6-methylpyridin-2-yl)-1H-pyrazole-3-carboxyamide] | 10 to 100 nM
10 | CNC(=O)c1ccc(NC(=O)c2cc(-c3ccc4ncnn4c3)n(-c3cccc(C)n3)n2)cc1 [Example 113, 5-([1,2,4]triazolo[1,5-α]pyridin-6-yl)-N-(4-(methylcarbamoyl)phenyl)-1-(6-methylpyridin-2-yl)-1H-pyrazole-3-carboxyamide] | 10 to 100 nM
11 | Cc1cccc(-n2nc(C(=O)Nc3ccccc3)cc2-c2ccc3ncnn3c2)n1 [Example 114, 5-([1,2,4]triazolo[1,5-α]pyridin-6-yl)-1-(6-methylpyridin-2-yl)-N-phenyl-1H-pyrazole-3-carboxyamide] | 9.5 nM
12 | Cc1cccc(-n2nc(C(=O)Nc3ccccc3C)cc2-c2ccc3ncnn3c2)n1 [Example 115, 5-([1,2,4]triazolo[1,5-α]pyridin-6-yl)-1-(6-methylpyridin-2-yl)-N-(o-tolyl)-1H-pyrazole-3-carboxyamide] | 10 to 100 nM
13 | Cc1cccc(NC(=O)c2cc(-c3ccc4ncnn4c3)n(-c3cccc(C)n3)n2)c1 [Example 116, 5-([1,2,4]triazolo[1,5-α]pyridin-6-yl)-1-(6-methylpyridin-2-yl)-N-(m-tolyl)-1H-pyrazole-3-carboxyamide] | ~10 nM
14 | Cc1ccc(NC(=O)c2cc(-c3ccc4ncnn4c3)n(-c3cccc(C)n3)n2)cc1 [Example 117, 5-([1,2,4]triazolo[1,5-α]pyridin-6-yl)-1-(6-methylpyridin-2-yl)-N-(p-tolyl)-1H-pyrazole-3-carboxyamide] | 10 to 100 nM
15 | Cc1cccc(-n2nc(C(=O)Nc3cccc(C(F)(F)F)c3)cc2-c2ccc3ncnn3c2)n1 [Example 118, 5-([1,2,4]triazolo[1,5-α]pyridin-6-yl)-1-(6-methylpyridin-2-yl)-N-(3-(trifluoromethyl)phenyl)-1H-pyrazole-3-carboxyamide] | 10 to 100 nM
16 | C=Cc1ccc(NC(=O)c2cc(-c3ccc4ncnn4c3)n(-c3cccc(C)n3)n2)cc1 [Example 119, 5-([1,2,4]triazolo[1,5-α]pyridin-6-yl)-1-(6-methylpyridin-2-yl)-N-(4-vinylphenyl)-1H-pyrazole-3-carboxyamide] | < 10 nM
17 | Cc1cccc(-n2nc(C(=O)Nc3cccc(C#N)c3)cc2-c2ccc3ncnn3c2)n1 [Example 120, 5-([1,2,4]triazolo[1,5-α]pyridin-6-yl)-N-(3-cyanophenyl)-1-(6-methylpyridin-2-yl)-1H-pyrazole-3-carboxyamide] | 10 to 100 nM
18 | Cc1cccc(-n2nc(C(=O)Nc3ccc(C#N)cc3)cc2-c2ccc3ncnn3c2)n1 [Example 121, 5-([1,2,4]triazolo[1,5-α]pyridin-6-yl)-N-(4-cyanophenyl)-1-(6-methylpyridin-2-yl)-1-H-pyrazole-3-carboxyamide] | 10 to 100 nM
19 | CC(=O)c1cccc(NC(=O)c2cc(-c3ccc4ncnn4c3)n(-c3cccc(C)n3)n2)c1 [Example 122, 5-([1,2,4]triazolo[1,5-α]pyridin-6-yl)-N-(3-acetylphenyl)-1-(6-methylpyridin-2-yl)-1H-pyrazole-3-carboxyamide] | 10 to 100 nM
20 | CC(=O)c1ccc(NC(=O)c2cc(-c3ccc4ncnn4c3)n(-c3cccc(C)n3)n2)cc1 [Example 123, 5-([1,2,4]triazolo[1,5-α]pyridin-6-yl)-N-(4-acetylphenyl)-1-(6-methylpyridin-2-yl)-1H-pyrazole-3-carboxyamide] | 10 to 100 nM
21 | Cc1cccc(-n2nc(C(=O)Nc3ccccc3F)cc2-c2ccc3ncnn3c2)n1 [Example 124, 5-([1,2,4]triazolo[1,5-α]pyridin-6-yl)-N-(2-fluorophenyl)-1-(6-methylpyridin-2-yl)-1H-pyrazole-3-carboxyamide] | 31 nM
22 | Cc1cccc(-n2nc(C(=O)Nc3cccc(F)c3)cc2-c2ccc3ncnn3c2)n1 [Example 125, 5-([1,2,4]triazolo[1,5-α]pyridin-6-yl)-N-(3-fluorophenyl)-1-(6-methylpyridin-2-yl)-1H-pyrazole-3-carboxyamide] | 10 to 100 nM
23 | Cc1cccc(-n2nc(C(=O)Nc3ccc(F)cc3)cc2-c2ccc3ncnn3c2)n1 [Example 126, 5-([1,2,4]triazolo[1,5-α]pyridin-6-yl)-N-(4-fluorophenyl)-1-(6-methylpyridin-2-yl)-1H-pyrazole-3-carboxyamide] | ~10 nM
24 | Cc1cccc(-n2nc(C(=O)Nc3ccccc3Cl)cc2-c2ccc3ncnn3c2)n1 [Example 127, 5-([1,2,4]triazolo[1,5-α]pyridin-6-yl)-N-(2-chlorophenyl)-1-(6-methylpyridin-2-yl)-1H-pyrazole-3-carboxyamide] | ~100 nM
25 | Cc1cccc(-n2nc(C(=O)Nc3cccc(Cl)c3)cc2-c2ccc3ncnn3c2)n1 [Example 128, 5-([1,2,4]triazolo[1,5-α]pyridin-6-yl)-N-(3-chlorophenyl)-1-(6-methylpyridin-2-yl)-1H-pyrazole-3-carboxyamide] | 10 to 100 nM
26 | Cc1cccc(-n2nc(C(=O)Nc3ccc(Cl)cc3)cc2-c2ccc3ncnn3c2)n1 [Example 129, 5-([1,2,4]triazolo[1,5-α]pyridin-6-yl)-N-(4-chlorophenyl)-1-(6-methylpyridin-2-yl)-1H-pyrazole-3-carboxyamide] | 10 to 100 nM
27 | Cc1cccc(-n2nc(C(=O)Nc3ccccc3Br)cc2-c2ccc3ncnn3c2)n1 [Example 130, 5-([1,2,4]triazolo[1,5-α]pyridin-6-yl)-N-(2-bromophenyl)-1-(6-methylpyridin-2-yl)-1H-pyrazole-3-carboxyamide] | 10 to 100 nM
28 | Cc1cccc(-n2nc(C(=O)Nc3cccc(Br)c3)cc2-c2ccc3ncnn3c2)n1 [Example 131, 5-([1,2,4]triazolo[1,5-α]pyridin-6-yl)-N-(3-bromophenyl)-1-(6-methylpyridin-2-yl)-1H-pyrazole-3-carboxyamide] | 10 to 100 nM
29 | Cc1cccc(-n2nc(C(=O)Nc3ccc(Br)cc3)cc2-c2ccc3ncnn3c2)n1 [Example 132, 5-([1,2,4]triazolo[1,5-α]pyridin-6-yl)-N-(4-bromophenyl)-1-(6-methylpyridin-2-yl)-1H-pyrazole-3-carboxyamide] | ~10 nM
30 | Cc1cccc(-n2nc(C(=O)Nc3cccc(F)c3F)cc2-c2ccc3ncnn3c2)n1 [Example 133, 5-([1,2,4]triazolo[1,5-α]pyridin-6-yl)-N-(2,3-difluorophenyl)-1-(6-methylpyridin-2-yl)-1H-pyrazole-3-carboxyamide] | 10 to 100 nM
